# Key:
# [1] = Antiproliferative activity against human HLF assessed as growth inhibition after 72 hrs by MTT assay; details: HLF cells
# [2] = test system: HCT-116; assay: Antiproliferative activity against human HCT116 cells assessed as growth inhibition after 72 hrs by MTT assay; format: functional; details: HCT-116, 72 h
# [3] = Antiproliferative activity against human SGC7901 cells assessed as growth inhibition after 72 hrs by MTT assay; format: functional; details: SGC-7901, 72 h
smiles,measurement,setting,value
O[C@H](COCCOC[C@@H](O)Cc1cn(-c2cncnc2)nn1)Cc1ccc(-c2ccccc2)cc1,GI50 at 72 h,[1],> 100 µM
same,GI50,[2],> 100 µM
same,GI50,[3],> 100 µM
N#Cc1ccc(Cn2cc(C[C@H](O)COCCOC[C@@H](O)Cc3ccc(-c4ccccc4)cc3)nn2)cc1,GI50 at 72 h,[1],36.6 µM
same,GI50,[2],8.8 µM
same,GI50,[3],7.7 µM
O[C@H](COCCOC[C@@H](O)Cc1c[nH]nn1)Cc1ccc(-c2ccccc2)cc1,GI50 at 72 h,[1],> 100 µM
same,GI50,[2],> 100 µM
same,GI50,[3],> 100 µM
COC1=C(OC)C(=O)C(CCCCCCCCCCn2cc(C[C@H](O)COCCOC[C@@H](O)Cc3ccc(-c4ccccc4)cc3)nn2)=C(C)C1=O,GI50 at 72 h,[1],18.3 µM
same,GI50,[2],0.6 µM
same,GI50,[3],3.8 µM
O[C@H](COCCOC[C@@H](O)Cc1cn(Cc2ccc(Oc3ccccc3)cc2)nn1)Cc1ccc(-c2ccccc2)cc1,GI50 at 72 h,[1],22.8 µM
same,GI50,[2],3.4 µM
same,GI50,[3],4.5 µM
COC1=C(OC)C(=O)C(CCCCCCn2cc(C[C@H](O)COCCOC[C@@H](O)Cc3ccc(-c4ccccc4)cc3)nn2)=C(C)C1=O,GI50 at 72 h,[1],> 50 µM
same,GI50,[2],5 µM
same,GI50,[3],16.6 µM
COC1=C(OC)C(=O)C(CCCCCCCCCCCCCCCn2cc(C[C@H](O)COCCOC[C@@H](O)Cc3ccc(-c4ccccc4)cc3)nn2)=C(C)C1=O,GI50 at 72 h,[1],> 50 µM
same,GI50,[2],1.5 µM
same,GI50,[3],2.49 µM
O=c1[nH]c2ccc(-n3cc(C[C@H](O)COCCOC[C@@H](O)Cc4ccc(-c5ccccc5)cc4)nn3)cc2s1,GI50 at 72 h,[1],47.7 µM
same,GI50,[2],9.2 µM
same,GI50,[3],10.5 µM
O[C@H](COCCOC[C@@H](O)Cc1cn(-c2ccc(N3CCOCC3)cc2)nn1)Cc1ccc(-c2ccccc2)cc1,GI50 at 72 h,[1],> 100 µM
same,GI50,[2],8.3 µM
same,GI50,[3],20.7 µM
O[C@H](COCCOC[C@@H](O)Cc1cn(-c2ccc3c(c2)OCCO3)nn1)Cc1ccc(-c2ccccc2)cc1,GI50 at 72 h,[1],5.2 µM
same,GI50,[2],16.5 µM
same,GI50,[3],6.4 µM
O=C1COc2ccc(-n3cc(C[C@H](O)COCCOC[C@@H](O)Cc4ccc(-c5ccccc5)cc4)nn3)cc2N1,GI50 at 72 h,[1],> 100 µM
same,GI50,[2],42.5 µM
same,GI50,[3],15.2 µM
O[C@H](COCCOC[C@@H](O)Cc1cn(-c2cncc3ccccc23)nn1)Cc1ccc(-c2ccccc2)cc1,GI50 at 72 h,[1],10.8 µM
same,GI50,[2],17.8 µM
same,GI50,[3],29.3 µM
O[C@H](COCCOC[C@@H](O)Cc1cn(Cc2ccc3ccccc3c2)nn1)Cc1ccc(-c2ccccc2)cc1,GI50 at 72 h,[1],19.8 µM
same,GI50,[2],8.6 µM
same,GI50,[3],12.1 µM
O[C@H](COCCOC[C@@H](O)Cc1cn(-c2cccnc2)nn1)Cc1ccc(-c2ccccc2)cc1,GI50 at 72 h,[1],> 100 µM
same,GI50,[2],46.8 µM
same,GI50,[3],29.8 µM
COC1=C(C)C(=O)C(CCCCCCCCCCn2cc(C[C@H](O)COCCOC[C@@H](O)Cc3ccc(-c4ccccc4)cc3)nn2)=C(C)C1=O,GI50 at 72 h,[1],35.1 µM
same,GI50,[2],4 µM
same,GI50,[3],0.505 µM
CC1=C(C)C(=O)C(CCCCCCCCCCn2cc(C[C@H](O)COCCOC[C@@H](O)Cc3ccc(-c4ccccc4)cc3)nn2)=C(C)C1=O,GI50 at 72 h,[1],> 25 µM
same,GI50,[2],0.9 µM
same,GI50,[3],0.35 µM
O[C@H](COCCOC[C@@H](O)Cc1cn(-c2cccs2)nn1)Cc1ccc(-c2ccccc2)cc1,GI50 at 72 h,[1],> 100 µM
same,GI50,[2],33.4 µM
same,GI50,[3],33.4 µM
O[C@H](COCCOC[C@@H](O)Cc1cn(Cc2cccc(-c3ccccc3)c2)nn1)Cc1ccc(-c2ccccc2)cc1,GI50 at 72 h,[1],> 100 µM
same,GI50,[2],7.2 µM
same,GI50,[3],10.6 µM
O[C@H](COCCOC[C@@H](O)Cc1cn(Cc2ccc(C(F)(F)F)cc2)nn1)Cc1ccc(-c2ccccc2)cc1,GI50 at 72 h,[1],29.8 µM
same,GI50,[2],2.5 µM
same,GI50,[3],8.7 µM
O[C@H](COCCOC[C@@H](O)Cc1cn(-c2ccc3[nH]ccc3c2)nn1)Cc1ccc(-c2ccccc2)cc1,GI50 at 72 h,[1],> 100 µM
same,GI50,[2],15.5 µM
same,GI50,[3],45.6 µM
CC1=C(CCCCCCCCCCn2cc(C[C@H](O)COCCOC[C@@H](O)Cc3ccc(-c4ccccc4)cc3)nn2)C(=O)c2ccccc2C1=O,GI50 at 72 h,[1],22.6 µM
same,GI50,[2],3 µM
same,GI50,[3],0.39 µM
CCCCCCCCCC[C@H](O)COCCOC[C@@H](O)CCCCCCCCCCCCC1=C[C@H](C)OC1=O,GI50 at 72 h,[1],27.8 µM
same,GI50,[2],0.181 µM
same,GI50,[3],0.076 µM
COc1cccc2c1C(=O)c1c(O)c3c(c(O)c1C2=O)C[C@@](O)(C(=O)CO)C[C@@H]3O[C@H]1C[C@H](N)[C@H](O)[C@H](C)O1 [DOXORUBICIN],GI50 at 72 h,[1],0.33 µM
same,GI50,[2],0.15 µM
same,GI50,[3],0.55 µM

# — ChEMBL document CHEMBL3232896, “Biological evaluation of new mimetics of annonaceous acetogenins: alteration of right scaffold by click linkage with aromatic functionalities” (Eur J Med Chem, 2014)
